From EP4603105A1, “PHARMACEUTICAL COMPOSITION CONTAINING CYCLIC COMPOUND HAVING SELECTIVE KRAS INHIBITORY EFFECT AGAINST HRAS AND NRAS” (CHUGAI SEIYAKU KABUSHIKI KAISHA, priority 2022, dated 2024)
*1 amine or outer side, *2 acyl side, *3 side chain or, on linkers, in order; H or OH if unused. Where a SMILES comes first, the peptide text is derived from it. Bridges are numbered along the chain shown (N, C = ends). [ ]: non-standard residue; d: D form. The star is where a group is joined. hPhe(3,5-F2-4-CF3) = N[C@@H](CCc1cc(F)c(C(F)(F)F)c(F)c1)C(=O)O; hPhe(3-Cl-4-CF3) = N[C@@H](CCc1ccc(C(F)(F)F)c(Cl)c1)C(=O)O; NPrPhe(4-CF3) = CCCN[C@@H](Cc1ccc(C(F)(F)F)cc1)C(=O)O; X36 = CN([C@@H](CCCC=[*:3])C(=O)[*:2])[*:1]; dαMeAlg = C[C@](CC=[*:3])(N[*:1])C(=O)[*:2]; NMeGly(cPent) = CN[C@H](C(=O)O)C1CCCC1; αMeI = CC[C@H](C)[C@](C)(N)C(=O)O; Hyp = O=C(O)[C@@H]1C[C@@H](O)CN1; NMeD = CN[C@@H](CC(=O)O)C(=O)O; NMeL = CN[C@@H](CC(C)C)C(=O)O; Morpholide = C1CN(*)CCO1; Ac5c = NC1(C(=O)O)CCCC1; Ac4c = NC1(C(=O)O)CCC1; Sar = CNCC(=O)O

What was measured:
[1] = target: GDP-bound NRAS wild-type protein (Homo sapiens, UniProt P01111); assay: Binding to NRAS by surface plasmon resonance (SPR), KD and KD ratio to KRAS
Method in brief: (§1)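 Measured at 30°C: SPR with GDP-loaded, E. coli-expressed biotin-Avi RAS captured (~100–300 RU), ascending 75 s compound injections, HBS pH 7.4 with GDP, MgCl2, 4% DMSO. KD from 1:1 fit.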

[2] = system: human lung cancer strain NCI-H441; assay type: cell-based
Method in brief: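 Signal came from […] measured per well once the reagent was added. Beforehand, cells were cultured at 37°C and 5% carbon dioxide on a compound series serially diluted in dimethyl sulfoxide.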

HRAS wild-type protein = HRAS wild-type protein (Homo sapiens, UniProt P01112); assay: Binding to HRAS by surface plasmon resonance (SPR), KD and KD ratio to KRAS
Method in brief: as §1

[3] = ratio of the KD value with respect to GDP-bound NRAS wild-type protein to the KD value with respect to KRAS
[4] = ratio of the KD value with respect to HRAS wild-type protein to the KD value with respect to KRAS
[5] = ratio of KD for GDP-bound NRAS wild-type protein to KD for KRAS
[6] = ratio of KD for HRAS wild-type protein to KD for KRAS
[7] = ratio of KD value for GDP-bound NRAS wild-type protein to KD value for KRAS (SPR)
[8] = ratio of KD value for HRAS wild-type protein to KD value for KRAS (SPR)

Chain of GDP-bound NRAS wild-type protein (P01111 whole entry): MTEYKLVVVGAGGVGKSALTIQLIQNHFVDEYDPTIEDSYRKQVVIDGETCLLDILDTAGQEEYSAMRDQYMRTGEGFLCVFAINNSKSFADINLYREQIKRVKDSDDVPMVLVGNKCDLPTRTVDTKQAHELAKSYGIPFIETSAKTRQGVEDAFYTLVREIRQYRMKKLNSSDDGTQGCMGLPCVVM
Chain of HRAS wild-type protein (P01112 whole entry): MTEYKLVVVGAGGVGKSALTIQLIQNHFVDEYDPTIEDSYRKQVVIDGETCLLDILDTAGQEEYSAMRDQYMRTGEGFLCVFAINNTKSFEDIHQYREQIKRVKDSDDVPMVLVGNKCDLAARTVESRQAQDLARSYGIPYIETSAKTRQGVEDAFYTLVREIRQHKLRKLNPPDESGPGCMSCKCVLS

| SMILES | IC50 [2] [nM] | NRAS /KRAS [1, 3] | HRAS /KRAS (HRAS wild-type protein; [4]) | NRAS /KRAS [1, 5] | HRAS /KRAS (HRAS wild-type protein; [6]) | NRAS /KRAS [1, 7] | HRAS /KRAS (HRAS wild-type protein; [8]) |
| --- | --- | --- | --- | --- | --- | --- | --- |
| CC[C@H](C)[C@@H]1NC(=O)[C@H](CC(C)C)N(C)C(=O)C[C@@H](C(=O)N2CCOCC2)N(C)C(=O)[C@H](C2CCCC2)N(C)C(=O)C2(COC2)NC(=O)[C@@H]2CCCN2C(=O)[C@H](CCc2cc(F)c(C(F)(F)F)c(F)c2)NC(=O)CN(C)C(=O)[C@H](Cc2ccc(C(F)(F)F)cc2)N2CCCC[C@@H](C2=O)N(C)C(=O)CN(C)C1=O [PP0563] | 29 | B (a compound having 3 or more and less than 10 is denoted as B) | B (a compound having 3 or more and less than 10 is denoted as B) | – | – | – | – |
| CCO[C@@H]1C[C@H]2C(=O)N(C)C3(CC(C)(C)C3)C(=O)N(C)[C@@H](C3CCCC3)C(=O)N(C)[C@H](C(=O)N(C)C)CC(=O)N(C)[C@H]3CCCCCCc4ccc(cc4)C[C@@H](C(=O)N(C)CC(=O)N[C@@H](CCc4ccc(C(F)(F)F)c(OC)c4)C(=O)N2C1)N1CC/C=C\C[C@@H](C1=O)N(C)C(=O)CN(C)C(=O)[C@H]([C@@H](C)CC)NC3=O [PP3090] | 1.3 | – | – | A (a compound having 10 or more and less than 20 is denoted as A) | B (a compound having 3 or more and less than 10 is denoted as B) | – | – |
| CCO[C@@H]1C[C@H]2C(=O)NC3(CC(C)(C)C3)C(=O)N(C)[C@@H](C3CCCC3)C(=O)N(C)[C@H](C(=O)N(C)C)CC(=O)N(C)[C@@H](CC(C)C)C(=O)N[C@@H]([C@@H](C)CC)C(=O)N(C)CC(=O)N(C)[C@H]3C/C=C\CCN(C3=O)[C@@H](Cc3ccc(C(C)=O)cc3)C(=O)N(C)CC(=O)N[C@@H](CCc3ccc(C(F)(F)F)c(OC)c3)C(=O)N2C1 [PP2694] | 12 | – | – | A (a compound having 10 or more and less than 20 is denoted as A) | B (a compound having 3 or more and less than 10 is denoted as B) | – | – |
| CCCN1C(=O)CN(C)C(=O)CN(C)C(=O)[C@H]([C@@H](C)CC)NC(=O)[C@H](CC(C)C)N(C)C(=O)C[C@@H](C(=O)N(C)C)N(C)C(=O)[C@H](C2CCCC2)N(C)C(=O)[C@](C)([C@@H](C)CC)NC(=O)[C@@H]2CCCN2C(=O)[C@H](CCc2cc(F)c(C(F)(F)F)c(F)c2)NC(=O)CN(C)C(=O)[C@@H]1Cc1ccc(C(F)(F)F)cc1 [PP0736] ([NMeL]I[Sar][Sar][NPrPhe(4-CF3)][Sar][hPhe(3,5-F2-4-CF3)]P[αMeI][NMeGly(cPent)][NMeD]-NMe2; lactam N-11) | 130 | B (a compound having 3 or more and less than 10 is denoted as B) | C (A compound having a KD ratio of 0.1 or more and less than 3 is denoted as C) | – | – | – | – |
| CCO[C@@H]1C[C@H]2C(=O)NC3(CCC3)C(=O)N(C)[C@@H](C3CCCC3)C(=O)N(C)[C@H](C(=O)N(C)C)CC(=O)N(C)[C@@H](CC3CC3)C(=O)N[C@@H]([C@@H](C)CC)C(=O)N(C)CC(=O)N(C)[C@H]3CCCCN(C3=O)[C@@H](Cc3ccc(C(F)(F)F)cc3)C(=O)N(C)CC(=O)N[C@@H](CCc3cc(F)c(C(F)(F)F)c(F)c3)C(=O)N2C1 [PP0697] | 3.8 | C (A compound having a KD ratio of 0.1 or more and less than 3 is denoted as C) | C (A compound having a KD ratio of 0.1 or more and less than 3 is denoted as C) | – | – | – | – |
| CCCN1C(=O)CN(C)C(=O)CNC(=O)[C@H]([C@@H](C)CC)NC(=O)[C@H](CC(C)C)N(C)C(=O)C[C@@H](C(=O)N(C)C)N(C)C(=O)[C@H](C2CCCC2)N(C)C(=O)C2(CCC2)NC(=O)[C@@H]2CCCN2C(=O)[C@H](CCc2ccc(C(F)(F)F)c(Cl)c2)NC(=O)CN(C)C(=O)[C@@H]1Cc1ccc(C(F)(F)F)cc1 [PP0418] ([NMeL]IG[Sar][NPrPhe(4-CF3)][Sar][hPhe(3-Cl-4-CF3)]P[Ac4c][NMeGly(cPent)][NMeD]-NMe2; lactam N-11) | 4.6 | B (a compound having 3 or more and less than 10 is denoted as B) | C (A compound having a KD ratio of 0.1 or more and less than 3 is denoted as C) | – | – | – | – |
| CCO[C@@H]1C[C@H]2C(=O)N(C)C3(CCC3)C(=O)N(C)[C@@H](C3CCCC3)C(=O)N(C)[C@H](C(=O)N(C)C)CC(=O)N(C)[C@@H](C3CC3)C(=O)N[C@@H]([C@@H](C)CC)C(=O)N(C)CC(=O)N(C)[C@H]3C/C=C\CCN(C3=O)[C@@H](Cc3ccc(C)cc3)C(=O)N(C)CC(=O)N[C@@H](CCc3cc(F)c(C(F)(F)F)c(F)c3)C(=O)N2C1 [PP1783] | 3.5 | – | – | – | – | A (a compound having 10 or more and less than 20 is denoted as A) | B (a compound having 3 or more and less than 10 is denoted as B) |

Further molecules by falling IC50 [2], results first:

| IC50 [2] [nM] | SMILES | NRAS /KRAS [1, 3] | HRAS /KRAS (HRAS wild-type protein; [4]) | NRAS /KRAS [1, 5] | HRAS /KRAS (HRAS wild-type protein; [6]) | NRAS /KRAS [1, 7] | HRAS /KRAS (HRAS wild-type protein; [8]) |
| --- | --- | --- | --- | --- | --- | --- | --- |
| 332 | CCCN1C(=O)CN(C)C(=O)CN(C)C(=O)[C@H]([C@@H](C)CC)NC(=O)[C@@H]2CCCC=CC[C@@](C)(NC(=O)[C@@H]3C[C@@H](OCC)CN3C(=O)[C@H](CCc3cc(F)c(C(F)(F)F)c(F)c3)NC(=O)CN(C)C(=O)[C@@H]1Cc1ccc(C(F)(F)F)cc1)C(=O)N(C)[C@@H](C1CCCC1)C(=O)N(C)[C@H](C(=O)N1CCOCC1)CC(=O)N2C [PP0901] ([X36]I[Sar][Sar][NPrPhe(4-CF3)][Sar][hPhe(3,5-F2-4-CF3)][Hyp](Et)[dαMeAlg][NMeGly(cPent)][NMeD]-Morpholide; staple 1-9; lactam N-11) | – | – | B (a compound having 3 or more and less than 10 is denoted as B) | B (a compound having 3 or more and less than 10 is denoted as B) | – | – |
| 69 | CCCN1C(=O)CN(C)C(=O)CNC(=O)[C@H]([C@@H](C)CC)NC(=O)[C@H](CC(C)C)N(C)C(=O)C[C@@H](C(=O)N(C)C)NC(=O)[C@H](C2CCCC2)N(C)C(=O)C2(CCCC2)NC(=O)[C@@H]2CCCN2C(=O)[C@H](CCc2ccc(C(F)(F)F)c(Cl)c2)NC(=O)CN(C)C(=O)[C@@H]1Cc1ccc(C(F)(F)F)cc1 [PP0361] ([NMeL]IG[Sar][NPrPhe(4-CF3)][Sar][hPhe(3-Cl-4-CF3)]P[Ac5c][NMeGly(cPent)]D-NMe2; lactam N-11) | – | – | B (a compound having 3 or more and less than 10 is denoted as B) | C (A compound having a KD ratio of 0.1 or more and less than 3 is denoted as C) | – | – |
| 9.5 | CC[C@H](C)[C@@H]1NC(=O)[C@H](CC)N(C)C(=O)C[C@@H](C(=O)N(C)C)N(C)C(=O)[C@H](C2CCCC2)N(C)C(=O)C2(CCC2)N(C)C(=O)[C@@H]2C[C@@H](C)CN2C(=O)[C@H](CCc2cc(F)c(C(F)(F)F)c(F)c2)NC(=O)CN(C)C(=O)[C@H](Cc2ccc(C)cc2)N2CC/C=C\C[C@@H](C2=O)N(C)C(=O)[C@@H]2CCCN2C1=O [PP1789] | – | – | – | – | A (a compound having 10 or more and less than 20 is denoted as A) | A (a compound having 10 or more and less than 20 is denoted as A) |
| 4.1 | CCO[C@@H]1C[C@H]2C(=O)NC3(CC(C)(C)C3)C(=O)N(C)[C@@H](C(CC)CC)C(=O)N(C)[C@H](C(=O)N(C)C)CC(=O)N(C)[C@H]3CCC/C=C/c4ccc(cc4)C[C@@H](C(=O)N(C)CC(=O)N[C@@H](CCc4cc(F)c(C(F)(F)F)c(F)c4)C(=O)N2C1)N1CC/C=C\C[C@@H](C1=O)N(C)C(=O)CN(C)C(=O)[C@H]([C@@H](C)CC)NC3=O [PP2575] | – | – | A (a compound having 10 or more and less than 20 is denoted as A) | A (a compound having 10 or more and less than 20 is denoted as A) | – | – |
